Laboratory results published in US6013242A, “Tropane derivatives with selective binding to the serotonin reuptake transporters for treatment of mental illness and as intermediates in the formation of imaging diagnostic agents for depression” (Wake Forest University, priority 1998, dated 2000).
Where two headings read alike, the source gives them in different places.

Assays:
[1] = biological target: T1, serotonin (5-HT) transporter (Rattus norvegicus, UniProt P31652); experiment: displacement of [3H]paroxetine binding to 5-HT transporter; conditions: for 5-HT/DA potency ratio: selectivity for 5-HT over DA transporter; for 5-HT/NE potency ratio: selectivity for 5-HT over NE transporter
T1 construct: from tissue; host or cells: rat frontal cortex
T1 sequence (P31652 whole entry): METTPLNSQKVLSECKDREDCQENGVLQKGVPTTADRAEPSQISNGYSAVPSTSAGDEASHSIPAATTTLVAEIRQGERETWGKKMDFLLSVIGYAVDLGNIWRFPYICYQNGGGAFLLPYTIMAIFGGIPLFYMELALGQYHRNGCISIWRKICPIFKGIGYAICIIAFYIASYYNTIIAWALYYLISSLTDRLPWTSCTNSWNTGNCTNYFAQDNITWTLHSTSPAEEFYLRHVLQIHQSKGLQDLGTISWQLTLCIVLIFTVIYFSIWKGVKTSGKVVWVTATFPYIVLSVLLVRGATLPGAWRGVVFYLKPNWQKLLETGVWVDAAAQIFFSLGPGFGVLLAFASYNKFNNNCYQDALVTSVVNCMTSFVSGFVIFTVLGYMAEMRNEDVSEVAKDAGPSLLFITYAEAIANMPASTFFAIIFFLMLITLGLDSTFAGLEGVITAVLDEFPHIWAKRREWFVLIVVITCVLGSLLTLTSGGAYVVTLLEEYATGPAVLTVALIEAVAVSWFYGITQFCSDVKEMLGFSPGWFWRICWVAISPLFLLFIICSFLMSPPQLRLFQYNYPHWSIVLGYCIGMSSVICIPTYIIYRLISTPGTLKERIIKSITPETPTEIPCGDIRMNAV

[2] = biological target: T2, dopamine (DA) transporter (Rattus norvegicus, UniProt P23977); experiment: displacement of [125I]RTI-55 binding to dopamine transporter; conditions: [125I]RTI-55, rat striatal membranes
T2 construct: was used to label dopamine transporters in rat striatal membranes; from tissue; host or cells: rat striatum (membranes)
T2 sequence (P23977 whole entry): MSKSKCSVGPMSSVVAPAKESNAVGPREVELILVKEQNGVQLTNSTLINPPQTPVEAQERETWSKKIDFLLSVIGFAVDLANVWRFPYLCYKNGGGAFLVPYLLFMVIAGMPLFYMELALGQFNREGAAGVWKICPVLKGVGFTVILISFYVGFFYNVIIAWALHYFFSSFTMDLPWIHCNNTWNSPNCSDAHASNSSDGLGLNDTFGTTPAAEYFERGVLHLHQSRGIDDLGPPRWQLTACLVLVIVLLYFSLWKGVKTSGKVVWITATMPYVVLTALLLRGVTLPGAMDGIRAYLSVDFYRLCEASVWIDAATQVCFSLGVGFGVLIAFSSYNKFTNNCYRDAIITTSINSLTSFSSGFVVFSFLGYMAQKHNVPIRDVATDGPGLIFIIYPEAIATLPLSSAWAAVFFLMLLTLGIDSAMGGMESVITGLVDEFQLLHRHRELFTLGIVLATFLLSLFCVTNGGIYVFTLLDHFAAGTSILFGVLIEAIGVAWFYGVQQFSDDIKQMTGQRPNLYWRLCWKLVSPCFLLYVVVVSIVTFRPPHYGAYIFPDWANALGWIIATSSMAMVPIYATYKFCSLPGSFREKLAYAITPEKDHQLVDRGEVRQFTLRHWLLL

[3] = biological target: T3, norepinephrine (NE) transporter (Rattus norvegicus, UniProt Q63380); experiment: displacement of [3H]nisoxetine binding to NE transporter; conditions: rat brain membranes
T3 construct: rat brain membranes; from tissue
T3 sequence (Q63380 1-617): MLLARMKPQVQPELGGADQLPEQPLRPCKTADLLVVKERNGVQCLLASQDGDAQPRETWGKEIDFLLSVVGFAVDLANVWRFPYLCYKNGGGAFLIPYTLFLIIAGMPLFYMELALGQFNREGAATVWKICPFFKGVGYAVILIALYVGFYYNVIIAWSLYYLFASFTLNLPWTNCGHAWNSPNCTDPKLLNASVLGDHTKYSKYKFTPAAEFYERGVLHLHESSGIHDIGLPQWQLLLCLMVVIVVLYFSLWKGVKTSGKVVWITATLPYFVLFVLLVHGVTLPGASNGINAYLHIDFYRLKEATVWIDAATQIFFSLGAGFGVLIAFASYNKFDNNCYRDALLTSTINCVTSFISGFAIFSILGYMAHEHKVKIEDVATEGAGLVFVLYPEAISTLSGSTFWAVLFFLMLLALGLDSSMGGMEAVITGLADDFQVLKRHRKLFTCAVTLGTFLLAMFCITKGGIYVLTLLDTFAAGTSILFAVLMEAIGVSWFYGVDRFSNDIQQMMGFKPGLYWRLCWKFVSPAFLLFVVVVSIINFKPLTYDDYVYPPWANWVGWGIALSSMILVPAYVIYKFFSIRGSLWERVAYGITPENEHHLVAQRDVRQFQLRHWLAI

[4] = biological target: T1, serotonin (5-HT) transporter; conditions: earlier tropanes (U.S. Ser. No. 08/589,820), 5-HT vs dopamine transporter; cited from earlier work
[5] = [3H]paroxetine, rat frontal cortex

Structure (SMILES)	Ki [1]	5-HT/DA potency ratio [1]	5-HT/NE potency ratio [1]	IC50 [2]	Ki [3]	Ki [1, 5]	transporter selectivity (in words) [4]
C=C(C)c1ccc([C@H]2C[C@@H]3CC[C@H]([C@H]2C(=O)CC)N3C)cc1 (relative stereo) [Example 1]	0.82 ± 0.38 nM	8.8	970	7.2 ± 2.1 nM	794 ± 110 nM		
C=C(C)c1ccc([C@H]2C[C@@H]3CC[C@@H](N3)[C@H]2C(=O)CC)cc1 (relative stereo) [Example 2]	0.11 ± 0.02 nM	150	850	16 ± 4.9 nM	94 ± 18 nM		
CCC(=O)[C@H]1[C@@H](c2ccc(-c3cccn3C)cc2)C[C@@H]2CC[C@H]1N2C (relative stereo) [Example 3, 8-Methyl-2β-propanoyl-3β-[4-(N-methyl-2-pyrrolyl)phenyl]-8-azabicyclo[3,2,1]octane]		24	> 15,000	703 ± 222 nM	> 10000 nM	25.6 ± 4.1 nM	
CCC(=O)[C@H]1[C@@H](c2ccc(-c3cccn3C)cc2)C[C@@H]2CC[C@H]1N2 (relative stereo) [Example 4, 2.beta .-Propanoyl-3β-[4-(N-methyl-2-pyrrolyl)phenyl]-8-azabicyclo[3.2.1]octane]		590	> 25,000	614 ± 98 nM	> 10000 nM	1.05 ± 0.2 nM	
CCC(=O)[C@H]1[C@@H](c2ccc(C=C(C)C)cc2)C[C@@H]2CC[C@H]1N2C (relative stereo) [Example 5, 8-Methyl-2β-Propanoyl-3β-[4-(2-methylpropenyl)phenyl]-8-azabicyclo[3.2.1]octane]		6	448	51.3 ± 15.5 nM	4130 ± 785 nM	9.22 ± 2.4 nM	
CCC(=O)[C@H]1[C@@H](c2ccc(C=C(C)C)cc2)C[C@@H]2CC[C@H]1N2 (relative stereo) [Example 6, 2.beta .-Propanoyl-3β-[4-(2-methylpropenyl)phenyl]-8-azabicyclo[3.2.1]octanem]	0.404 ± 0.1 nM	240	3097	96.3 ± 17.1 nM	1250 ± 124 nM		
CCC(=O)[C@H]1[C@@H](c2ccc(/C=C/I)cc2)C[C@@H]2CC[C@H]1N2 (relative stereo) [Example 11, (E)-2β-Propanoyl-3β-[4-(2-iodoethenyl)phenyl]-8-azab icyclo[3.2.1]octane]	0.619 ± 0.078 nM	83	80	51.3 ± 5.6 nM	49.7 ± 10.6 nM		
CCC(=O)[C@H]1[C@@H](c2ccc(/C=C(\C)I)cc2)C[C@@H]2CC[C@H]1N2 (relative stereo) [Example 12, (E)-2β-Propanoyl-3. beta.-[4-(2-iodopropenyl)phenyl]-8-azabicyclo[3.2.1]octane]	0.566 ± 0.027 nM	708	645	401 ± 73 nM	365 ± 118 nM		
CCC(=O)[C@H]1[C@@H](c2ccc(/C=C(/C)I)cc2)C[C@@H]2CC[C@H]1N2 (relative stereo) [Example 13, (Z)-2β-Pr opanoyl-3β-[4-(2-iodopropenyl)phenyl]-8-azabicyclo[3.2.1]octane]	0.131 ± 0.03 nM	507	509	66.5 ± 11.1 nM	66.7 ± 17.1 nM		
CCC(=O)C1C(c2ccc3ccccc3c2)CC2CCC1N2C (stereo not shown) [2-naphthyl derivative]							unselective
C=C(C)c1ccc(C2CC3CCC(N3)C2C(=O)CC)cc1 (stereo not shown) [4-(1-methylethenyl)phenyl derivative]							most selective compound described in the previous case
C=C(CC)c1ccc([C@H]2C[C@@H]3CC[C@H]([C@H]2C(=O)CC)N3C)cc1 [Example 7, (R)-8-Methyl-2β-propanoyl-3β-[4-(1-ethylethenyl)phenyl]-8-azabicyclo[3.2.1]octanem]	1.13 ± 0.3 nM	20	1000	22.1 ± 7.76 nM	1140 ± 606 nM		
C=C(CC)c1ccc(C2CC3CCC(N3)C2C(=O)CC)cc1 [Example 8, (R)-2. beta.-Propanoyl-3β-[4-(1-ethylethenyl)phenyl]-8-azabicyclo[3.2.1]octane]	0.194 ± 0.1 nM	200	1790	37.9 ± 12.9 nM	347 ± 54.8 nM		
C/C=C/c1ccc([C@H]2C[C@@H]3CC[C@H]([C@H]2C(=O)CC)N3C)cc1 [Example 9, (R)-(E )-8-Methyl-2β-propanoyl-3β-[4-(1-propenyl)phenyl]-8-azabicyclo[3.2.1]octane]	1.17 ± 0.46 nM	1.5	250	1.59 ± 0.66 nM	292 ± 71.7 nM		
CC=Cc1ccc(C2CC3CCC(N3)C2C(=O)CC)cc1 [Example 10, (R)-(E )-2β-Propanoyl-3β-[4-(1-propenyl)phenyl]-8-azabicyclo[3.2.1]octane]	0.236 nM	8	108	1.94 ± 0.96 nM	25.6 ± 9.6 nM		
